Measurements taken from patent US8415475B2, “Antibacterial quinoline derivatives” (Janssen Pharmaceutica N.V., priority 2006, dated 2013).
Converted amounts (≈) assume the structure as drawn.

Tests used:
[1] = system: Staphylococcus aureus (ATCC29213); experiment: In-vitro anti-bacterial microtitre plate assay, IC90, S. aureus; assay type: cell-based; settings: 90% inhibitory concentration for bacterial growth, resazurin fluorescence; for IC90: Staphylococcus aureus, ATCC29213, 24 h, read-out: IC90 values STA 1 B29213; for IC90 values STA 1 B29213: 24 hours
Description: (§1) D.3. In-Vitro Method for Testing Compounds for Anti-Bacterial Activity Against Various Non-Mycobacterial Strains The bacteria used in this study were grown overnight in flasks containing 100 ml Mueller-Hinton Broth (Becton Dickinson-cat. no. 275730) in sterile de-ionized water, with shaking, at 37° C. Stocks (0.5 ml/tube) were stored at -70° C. until use. Bacteria titrations were performed in microtiter plates to detect the TCID50, in which the TCID50 represents the dilution that gives rise to bacterial growth in 50% of inoculated cultures. In general, an inoculum level of approximately 100 TCID50 was used for susceptibility testing. Flat-bottom, sterile 96-well plastic microtiter plates were filled with 180 μl of sterile deionized water, supplemented with 0.25% BSA. Subsequently, stock solutions (7.8× final test concentration) of compounds were added in 45 μl volumes in column 2. Serial five-fold dilutions (45 μl in 180 μl) were made directly in the microtiter plates from column 2 to reach column 11. Untreated control samples with (column 1) and without (column 12) inoculum were included in each microtiter plate. Depending on the bacteria type, approximately 10 to 60 CFU per well of bacteria inoculum (100 TCID50), in a volume of 100 μl in 2.8× Mueller-Hinton broth medium, was added to the rows […]. The same volume of broth medium without inoculum was added to column 12 in row A to H. The cultures were incubated at 37° C. for 24 hours under a normal atmosphere (incubator with open air valve and continuous ventilation). At the end of incubation, one day after inoculation, the bacterial growth was quantitated fluorometrically. Therefore resazurin (0.6 mg/ml) was added in a volume of 20 μl to all wells 3 hours after inoculation, and the plates were re-incubated overnight. A change in colour from blue to pink indicated the growth of bacteria. The fluorescence was read in a computer-controlled fluorometer (Cytofluor Biosearch) at an excitation wavelength of 530 nm and an emission wavelength of 590 nm. The % growth inhibition achieved by the compounds was calculated according to standard methods.

[2] = system: Streptococcus pneumoniae (ATCC6305); experiment: In-vitro anti-bacterial microtitre plate assay, IC90, S. pneumoniae; assay type: cell-based; settings: 90% inhibitory concentration for bacterial growth, resazurin fluorescence; for IC90: Streptococcus pneumoniae, ATCC6305, 24 h, read-out: IC90 values SPN 1 6305; for IC90 values SPN 1 6305: 24 hours
Description: as §1

[3] = system: Streptococcus pyogens (ATCC8668); experiment: In-vitro anti-bacterial microtitre plate assay, IC90, S. pyogens; assay type: cell-based; settings: 90% inhibitory concentration for bacterial growth, resazurin fluorescence; for IC90: Streptococcus, ATCC8668, 24 h, read-out: IC90 values SPY 8668
Description: as §1

M. Smegmatis (ATCC607) = experiment: In-vitro anti-bacterial activity against strain M. smegmatis ATCC607; assay type: cell-based; settings: 90% inhibitory concentration for bacterial growth, Alamar Blue fluorescence; for IC90: Mycolicibacterium smegmatis, ATCC607, 48 h, read-out: IC90 values MSM 1 ATCC607; for IC90 values MSM 1 ATCC607: 48 hours
Description: D.2. In-Vitro Method for Testing Compounds for Anti-Bacterial Activity Against Strain M. smegmatis ATCC607. Flat-bottom, sterile 96-well plastic microtiter plates were filled with 180 μl of sterile deionized water, supplemented with 0.25% BSA. Subsequently, stock solutions (7.8× final test concentration) of compounds were added in 45 μl volumes to a series of duplicate wells in column 2 so as to allow evaluation of their effects on bacterial growth. Serial five-fold dilutions (45 μl in 180 μl) were made directly in the microtiter plates from column 2 to 11 using a customised robot system (Zymark Corp., Hopkinton, Mass.). Pipette tips were changed after every 3 dilutions to minimize pipetting errors with high hydrophobic compounds. Untreated control samples with (column 1) and without (column 12) inoculum were included in each microtiter plate. Approximately 250 CFU per well of bacteria inoculum, in a volume of 100 μl in 2.8× Mueller-Hinton broth medium, was added to the rows […]. The same volume of broth medium without inoculum was added to column 12 in row A to H. The cultures were incubated at 37° C. for 48 hours in a humidified 5% CO2 atmosphere (incubator with open air valve and continuous ventilation). At the end of incubation, two days after inoculation, the bacterial growth was quantitated fluorometrically. Therefore Alamar Blue (10×) was added to all wells in a volume of 20 μl and plates were incubated for another 2 hours at […] The fluorescence was read in a computer-controlled fluorometer (Cytofluor, Biosearch) at an excitation wavelength of 530 nm and an emission wavelength of 590 nm (gain 30).

[4] = system: Enterococcus faecalis (ATCC29212); experiment: In-vitro anti-bacterial microtitre plate assay, IC90, E. faecalis; assay type: cell-based; settings: 90% inhibitory concentration for bacterial growth, resazurin fluorescence; for IC90: Enterococcus faecalis, ATCC29212, 24 h, read-out: IC90 values EFA 29212
Description: as §1

[5] = system: Mycobacterium tuberculosis (strain H37RV); experiment: In-vitro method for testing compounds against M. tuberculosis; assay type: cell-based; settings: 90% inhibitory concentration for bacterial growth, 7 days, Middlebrook broth, resazurin fluorescence; for IC90: Mycobacterium tuberculosis, H37RV, 168 h, read-out: IC90 values MTB 1 H37RV

Row | Compound | melting point | IC90 [1] | IC90 [2] | IC90 values STA 1 B29213 [1] | IC90 values SPN 1 6305 [2] | IC90 values MSM 1 ATCC607 (M. Smegmatis (ATCC607)) | also measured
1 | C=Cc1ccc2nc(OC)c(C(c3ccc(Cl)cc3)C(O)(CCN(C)C)c3ccccc3)cc2c1 (single isomer, unassigned) [Compound 1] | 184 °C | 48.7 µg/mL (≈ 100 µM) | 1.7 µg/mL (≈ 3.49 µM) | – | – | – | –
2 | C=Cc1ccc2nc(OC)c(C(c3ccc(Cl)cc3)C(O)(CCN(C)C)c3ccccc3)cc2c1 (single isomer, unassigned) [Compound 2] | 187 °C | – | – | 48.7 µg/mL (≈ 100 µM) | 1.7 µg/mL (≈ 3.49 µM) | – | IC90 [3]: 1.22 µg/mL (≈ 2.5 µM); IC90 (M. Smegmatis (ATCC607)): 1.4 µg/mL (≈ 2.87 µM); IC90 [4]: 38.7 µg/mL (≈ 79.4 µM)
3 | COc1nc2ccc(/C=N/O)cc2cc1C(c1ccccc1)C(O)(CCCCN(C)C)c1ccccc1 (single isomer, unassigned) [Compound 3] | – | 7.9 µg/mL (≈ 15.9 µM) | 49.8 µg/mL (≈ 100 µM) | – | – | – | IC90 (M. Smegmatis (ATCC607)): 7.9 µg/mL (≈ 15.9 µM)
4 | CO/N=C/c1ccc2nc(OC)c(C(c3ccccc3)C(O)(CCCCN(C)C)c3ccccc3)cc2c1 (single isomer, unassigned) [Compound 4] | – | 8.1 µg/mL (≈ 15.8 µM) | 10.2 µg/mL (≈ 19.9 µM) | – | – | – | IC90 (M. Smegmatis (ATCC607)): 1.6 µg/mL (≈ 3.13 µM)
5 | C=Cc1ccc2nc(OC)c(C(c3ccccc3)C(O)(CCc3ccc(F)cc3)CCN(C)C)cc2c1 (single isomer, unassigned) [Compound 6] | 135 °C | 1.6 µg/mL (≈ 3.21 µM) | 1.3 µg/mL (≈ 2.61 µM) | – | – | 0.1 µg/mL (≈ 0.201 µM) | –
6 | C=Cc1ccc2nc(OC)c(C(c3ccccc3)C(O)(CCc3ccc(F)cc3)CCN(C)C)cc2c1 (single isomer, unassigned) [Compound 7] | 156 °C | – | – | 1.6 µg/mL (≈ 3.21 µM) | 1.3 µg/mL (≈ 2.61 µM) | 1.3 µg/mL (≈ 2.61 µM) | –
7 | C=Cc1ccc2nc(OC)c(C(c3ccccc3)C(O)(CCN(C)C)c3cccc4ccccc34)cc2c1 (single isomer, unassigned) [Compound 10] | – | 50.3 µg/mL (≈ 100 µM) | – | – | 20.0 µg/mL (≈ 39.8 µM) | – | IC90 (M. Smegmatis (ATCC607)): 8 µg/mL (≈ 15.9 µM)
8 | C/C=C/c1ccc2nc(OC)c(C(c3ccccc3)C(O)(CCN(C)C)c3cccc4ccccc34)cc2c1 (single isomer, unassigned) [Compound 12] | 189 °C | 51.7 µg/mL (≈ 100 µM) | – | – | 0.7 µg/mL (≈ 1.35 µM) | 0.3 µg/mL (≈ 0.581 µM) | IC90 [3]: 51.7 µg/mL (≈ 100 µM); IC90 [4]: 51.7 µg/mL (≈ 100 µM)
9 | CC#Cc1ccc2nc(OC)c(C(c3ccccc3)C(O)(CCN(C)C)c3cccc4ccccc34)cc2c1 (single isomer, unassigned) [Compound 13] | 100 °C | 51.5 µg/mL (≈ 100 µM) | – | – | 0.3 µg/mL (≈ 0.583 µM) | 0.003 µg/mL (≈ 0.00583 µM) | IC90 [3]: 51.5 µg/mL (≈ 100 µM); IC90 [4]: 51.5 µg/mL (≈ 100 µM)
10 | CC#Cc1ccc2nc(OC)c(C(c3ccccc3)C(O)(CCN(C)C)c3cccc4ccccc34)cc2c1 (single isomer, unassigned) [Compound 14] | 202 °C | – | – | 45.9 µg/mL (≈ 89.2 µM) | 1.5 µg/mL (≈ 2.91 µM) | 0.3 µg/mL (≈ 0.583 µM) | IC90 values SPY 8668 ([3]; 24 hours): 40.88 µg/mL (≈ 79.4 µM); IC90 values EFA 29212 ([4]; 24 hours): 51.47 µg/mL (≈ 100 µM)
11 | COc1nc2ccc(N)cc2cc1C(c1ccccc1)C(O)(CCN(C)C)c1cccc2ccccc12 (single isomer, unassigned) [Compound 16] | – | – | – | 43.8 µg/mL (≈ 89.1 µM) | 24.6 µg/mL (≈ 50 µM) | 7.8 µg/mL (≈ 15.9 µM) | IC90 values MTB 1 H37RV [5]: 31.0 µg/mL (≈ 63.1 µM)
12 | COc1nc2ccc(CN)cc2cc1C(c1ccccc1)C(O)(CCN(C)C)c1cccc2ccccc12 (single isomer, unassigned) [Compound 17] | – | – | – | 8.0 µg/mL (≈ 15.8 µM) | 8.0 µg/mL (≈ 15.8 µM) | 0.4 µg/mL (≈ 0.791 µM) | IC90 [5]: 3.6 µg/mL (≈ 7.12 µM)
13 | COc1nc2ccc(CN)cc2cc1C(c1ccccc1)C(O)(CCN(C)C)c1cccc2ccccc12 (single isomer, unassigned) [Compound 20] | – | – | 8 µg/mL (≈ 15.8 µM) | 35.8 µg/mL (≈ 70.8 µM) | – | 40.2 µg/mL (≈ 79.5 µM) | –
14 | COc1nc2ccc(CN(C)C)cc2cc1C(c1ccccc1)C(O)(CCN(C)C)c1cccc2ccccc12 (single isomer, unassigned) [Compound 21] | – | 10.7 µg/mL (≈ 20 µM) | 13.4 µg/mL (≈ 25.1 µM) | – | – | 0.7 µg/mL (≈ 1.31 µM) | –
15 | COc1nc2ccc(CN(C)C)cc2cc1C(c1ccccc1)C(O)(CCN(C)C)c1cccc2ccccc12 (single isomer, unassigned) [Compound 22] | – | – | – | 9.5 µg/mL (≈ 17.8 µM) | 21.3 µg/mL (≈ 39.9 µM) | 18.9 µg/mL (≈ 35.4 µM) | –
16 | COc1nc2ccc(/C=N/O)cc2cc1C(c1ccccc1)C(O)(CCN(C)C)c1cccc2ccccc12 (single isomer, unassigned) [Compound 24] | 167 °C | 8.2 µg/mL (≈ 15.8 µM) | – | – | 1.6 µg/mL (≈ 3.08 µM) | 2.3 µg/mL (≈ 4.43 µM) | –
17 | COc1nc2ccc(C(=O)N(C)C)cc2cc1C(c1ccccc1)C(O)(CCN(C)C)c1cccc2ccccc12 (single isomer, unassigned) [Compound 28] | – | 43.5 µg/mL (≈ 79.4 µM) | 10.9 µg/mL (≈ 19.9 µM) | – | – | – | IC90 [5]: 3.5 µg/mL (≈ 6.39 µM); IC90 (M. Smegmatis (ATCC607)): 0.1 µg/mL (≈ 0.183 µM)
18 | COc1nc2ccc(CN3CCN(C)CC3)cc2cc1C(c1ccccc1)C(O)(CCN(C)C)c1cccc2ccccc12 (single isomer, unassigned) [Compound 29] | – | 9.3 µg/mL (≈ 15.8 µM) | 10.5 µg/mL (≈ 17.8 µM) | – | – | – | IC90 (M. Smegmatis (ATCC607)): 2.6 µg/mL (≈ 4.42 µM)
19 | COc1nc2ccc(/C=N/O)cc2cc1C(c1ccccc1)C(O)(CCCCN(C)C)c1ccc2ccccc2c1 (single isomer, unassigned) [Compound 32] | – | 1.7 µg/mL (≈ 3.1 µM) | – | – | 10.9 µg/mL (≈ 19.9 µM) | 7.7 µg/mL (≈ 14.1 µM) | –
20 | COc1nc2ccc(/C=N/O)cc2cc1C(c1ccccc1)C(O)(CCCCN(C)C)c1ccc2ccccc2c1 (single isomer, unassigned) [Compound 33] | 180 °C | – | – | 1.7 µg/mL (≈ 3.1 µM) | 1.9 µg/mL (≈ 3.47 µM) | 1.7 µg/mL (≈ 3.1 µM) | –
21 | C=Cc1ccc2nc(OC)c(C(c3ccccc3)C(O)(CCCCN3CCCCC3)c3ccccc3)cc2c1 (single isomer, unassigned) [Compound 34] | – | 1.7 µg/mL (≈ 3.26 µM) | – | – | 2.1 µg/mL (≈ 4.03 µM) | – | IC90 (M. Smegmatis (ATCC607)): 1.7 µg/mL (≈ 3.26 µM)
22 | C=Cc1ccc2nc(OC)c(C(c3ccccc3)C(O)(CCCCN3CCCCC3)c3ccccc3)cc2c1 (single isomer, unassigned) [Compound 35] | – | – | – | 1.7 µg/mL (≈ 3.26 µM) | 10.4 µg/mL (≈ 20 µM) | 1.7 µg/mL (≈ 3.26 µM) | –
23 | COc1nc2ccc(C(=O)c3cccc(Br)c3)cc2cc1C(c1ccc(Cl)cc1)C(O)(CCN(C)C)c1ccccc1 (single isomer, unassigned) [Compound 40] | 185 °C | – | – | – | – | – | –
24 | COc1nc2ccc(C(=O)c3cccc(Br)c3)cc2cc1C(c1ccccc1)C(O)(CCN(C)C)c1cccc2ccccc12 (stereo not drawn) [Compound 38] | 118 °C | – | – | – | – | – | –
